Assay results as given in patent US6677277B1, “Substituted sulphonyl amino(thio)carbonyl compounds and their use as herbicides” (Bayer Aktiengesellschaft, priority 1996, dated 2004).

Legend:
Format in all cases: in vivo
[1] = tested on: weeds; test: Pre-emergence test; details: cf. Tables A-1 to A-5
Method: (§1) Pre-emergence Test Solvent: 5 parts by weight of acetone Emulsifier: 1 part by weight of alkylaryl polyglycol ether To produce a suitable preparation of active compound, 1 part by weight of active compound is mixed with the stated amount of solvent, the stated amount of emulsifier is added and the concentrate is diluted with water to the desired concentration. Seeds of the test plants are sown in normal soil. After about 24 hours, the soil is sprayed with the preparation of the active compound in such a way as to apply the particular amounts of active compound desired per unit area The concentration of the spray liquor is chosen so that the particular amounts of active compound desired are applied in 1000 l of water/ha. After three weeks, the degree of damage to the plants is rated in % damage in comparison to the development of the untreated control. The figures denote: [table]

[2] = tested on: Wheat; test: Post-emergence test/greenhouse; details: 60 g ai./ha, after three weeks
Method: as §1, with “Post-emergence” for “Pre-emergence”, “Test plants which have a height” for “Seeds”, “5-15 cm” for “the test plants”, “are” for “are sown in normal soil. After about 24 hours, the soil is”, “area.” for “area”

[3] = tested on: Ipomoea; test: Post-emergence test/greenhouse; details: after three weeks
Method: as §1, with “Post-emergence” for “Pre-emergence”, “Test plants which have a height” for “Seeds”, “5-15 cm” for “the test plants”, “are” for “are sown in normal soil. After about 24 hours, the soil is”, “area.” for “area”

[4] = tested on: Alopecurus; test: Post-emergence test/greenhouse; details: after three weeks
Method: as §1, with “Post-emergence” for “Pre-emergence”, “Test plants which have a height” for “Seeds”, “5-15 cm” for “the test plants”, “are” for “are sown in normal soil. After about 24 hours, the soil is”, “area.” for “area”

[5] = tested on: Sorghum; test: Post-emergence test/greenhouse; details: post-emergence, after three weeks
Method: as §1, with “Post-emergence” for “Pre-emergence”, “Test plants which have a height” for “Seeds”, “5-15 cm” for “the test plants”, “are” for “are sown in normal soil. After about 24 hours, the soil is”, “area.” for “area”

[6] = tested on: Lolium; test: Post-emergence test/greenhouse; details: after three weeks
Method: as §1, with “Post-emergence” for “Pre-emergence”, “Test plants which have a height” for “Seeds”, “5-15 cm” for “the test plants”, “are” for “are sown in normal soil. After about 24 hours, the soil is”, “area.” for “area”

[7] = tested on: Solanum; test: Post-emergence test/greenhouse; details: post-emergence, after three weeks
Method: as §1, with “Post-emergence” for “Pre-emergence”, “Test plants which have a height” for “Seeds”, “5-15 cm” for “the test plants”, “are” for “are sown in normal soil. After about 24 hours, the soil is”, “area.” for “area”

[8] = tested on: Stellaria; test: Post-emergence test/greenhouse; details: after three weeks
Method: as §1, with “Post-emergence” for “Pre-emergence”, “Test plants which have a height” for “Seeds”, “5-15 cm” for “the test plants”, “are” for “are sown in normal soil. After about 24 hours, the soil is”, “area.” for “area”

[9] = tested on: Xanthium; test: Post-emergence test/greenhouse; details: post-emergence, after three weeks
Method: as §1, with “Post-emergence” for “Pre-emergence”, “Test plants which have a height” for “Seeds”, “5-15 cm” for “the test plants”, “are” for “are sown in normal soil. After about 24 hours, the soil is”, “area.” for “area”

[10] = tested on: weeds; test: Post-emergence test; details: cf. Tables B-1 to B-4
Method: as §1, with “Post-emergence” for “Pre-emergence”, “Test plants which have a height” for “Seeds”, “5-15 cm” for “the test plants”, “are” for “are sown in normal soil. After about 24 hours, the soil is”, “area.” for “area”

[11] = tested on: Alopecurus; test: Pre-emergence test/greenhouse; details: after three weeks
Method: as §1

[12] = tested on: Sorghum; test: Pre-emergence test/greenhouse; details: after three weeks
Method: as §1

[13] = tested on: Matricaria; test: Pre-emergence test/greenhouse; details: after three weeks
Method: as §1

[14] = tested on: Lolium; test: Pre-emergence test/greenhouse; details: after three weeks
Method: as §1

[15] = tested on: Solanum; test: Pre-emergence test/greenhouse; details: after three weeks
Method: as §1

[16] = tested on: Chenopodium; test: Pre-emergence test/greenhouse; details: after three weeks
Method: as §1

[17] = tested on: Amaranthus; test: Pre-emergence test/greenhouse; details: after three weeks
Method: as §1

[18] = tested on: Maize; test: Pre-emergence test/greenhouse; details: after three weeks
Method: as §1

[19] = tested on: Soya beans; test: Pre-emergence test/greenhouse; details: 125 g ai./ha, after three weeks
Method: as §1

[20] = tested on: Wheat; test: Pre-emergence test/greenhouse; details: 60 g ai./ha, after three weeks
Method: as §1

[21] = tested on: Veronica; test: Pre-emergence test/greenhouse; details: 60 g ai./ha, after three weeks
Method: as §1

SMILES	activity against weeds [1]	% damage, Wheat [2] [%]	% damage, Ipomoea ([3]; 60 g ai./ha) [%]	% damage, Alopecurus ([4]; 60 g ai./ha) [%]	% damage, Sorghum ([5]; 60 g ai./ha) [%]	% damage, Lolium ([6]; 60 g ai./ha) [%]	% damage, Solanum ([7]; 60 g ai./ha) [%]	% damage, Stellaria ([8]; 60 g ai./ha) [%]	% damage, Xanthium ([9]; 60 g ai./ha) [%]	activity against weeds [10]	% damage, Alopecurus ([11]; 125 g ai./ha) [%]	% damage, Sorghum ([12]; 125 g ai./ha) [%]	% damage, Matricaria ([13]; 125 g ai./ha) [%]	% damage, Alopecurus ([11]; 60 g ai./ha) [%]	% damage, Sorghum ([12]; 60 g ai./ha) [%]	% damage, Lolium ([14]; 60 g ai./ha) [%]	% damage, Solanum ([15]; 60 g ai./ha) [%]	% damage, Chenopodium ([16]; 60 g ai./ha) [%]	% damage, Amaranthus ([17]; 60 g ai./ha) [%]	% damage, Maize ([18]; 60 g ai./ha) [%]	also measured
CCOc1nn(C(=O)NS(=O)(=O)c2c(OC(F)(F)F)cccc2SCC)c(=O)n1C [Example 6]	very strong activity	5	90	60	70	50	95	95	95	very strong activity	100	80	100	–	–	–	–	–	–	–	% damage, Lolium ([14]; 125 g ai./ha): 100%; % damage, Solanum ([15]; 125 g ai./ha): 100%; % damage, Chenopodium ([16]; 125 g ai./ha): 100%; % damage, Amaranthus ([17]; 125 g ai./ha): 100%; % damage, Maize ([18]; 125 g ai./ha): 0%
CCOc1nn(C(=O)NS(=O)(=O)c2c(OC)cccc2SCC)c(=O)n1C [Example 7]	very strong activity	10	95	95	95	95	95	100	–	very strong activity	100	90	70	–	–	–	–	–	–	–	% damage, Lolium ([14]; 125 g ai./ha): 100%; % damage, Solanum ([15]; 125 g ai./ha): 100%; % damage, Chenopodium ([16]; 125 g ai./ha): 100%; % damage, Amaranthus ([17]; 125 g ai./ha): 100%; % damage, Maize ([18]; 125 g ai./ha): 0%
CCOc1nn(C(=O)NS(=O)(=O)c2c(OC)cccc2SC)c(=O)n1C [Example 20]	very strong activity	20	95	95	100	90	100	100	95	very strong activity	–	–	–	100	100	95	100	100	100	0	% damage, Matricaria ([13]; 60 g ai./ha): 100%
COc1cccc(SC)c1S(=O)(=O)NC(=O)n1nc(OC)n(C)c1=O [Example 21]	very strong activity	–	90	100	100	95	100	100	–	very strong activity	–	–	–	100	100	100	100	100	100	20	% damage, Matricaria ([13]; 60 g ai./ha): 90%
CCOc1nn(C(=O)NS(=O)(=O)c2c(OC(F)(F)F)cccc2SC(C)C)c(=O)n1C [Example 25]	very strong activity	–	–	–	–	–	–	–	–	–	100	80	95	–	–	–	–	–	–	–	% damage, Soya beans [19]: 20%; % damage, Lolium ([14]; 125 g ai./ha): 70%; % damage, Solanum ([15]; 125 g ai./ha): 100%; % damage, Chenopodium ([16]; 125 g ai./ha): 100%; % damage, Amaranthus ([17]; 125 g ai./ha): 95%; % damage, Maize ([18]; 125 g ai./ha): 0%
CCSc1cccc(OC)c1S(=O)(=O)NC(=O)n1nc(OC)n(C)c1=O [Example 30]	very strong activity	–	–	–	–	–	–	–	–	very strong activity	–	–	–	100	95	100	95	90	95	0	% damage, Ipomoea ([3]; 125 g ai./ha): 90%; % damage, Alopecurus ([4]; 125 g ai./ha): 95%; % damage, Sorghum ([5]; 125 g ai./ha): 100%; % damage, Lolium ([6]; 125 g ai./ha): 90%; % damage, Solanum ([7]; 125 g ai./ha): 100%; % damage, Stellaria ([8]; 125 g ai./ha): 100%; % damage, Xanthium ([9]; 125 g ai./ha): 100%; % damage, Matricaria ([13]; 60 g ai./ha): 95%
CCc1nn(C(=O)NS(=O)(=O)c2c(OC(F)(F)F)cccc2SC)c(=O)n1C [Example 34]	very strong activity	20	80	90	100	70	95	80	95	very strong activity	–	–	–	100	90	80	95	90	90	20	–
CCOc1nn(C(=O)NS(=O)(=O)c2c(OC(F)(F)F)cccc2SC)c(=O)n1C [Example 35]	very strong activity	–	–	–	–	–	–	–	–	–	–	–	–	100	90	95	95	100	100	–	% damage, Wheat [20]: 10%; % damage, Veronica [21]: 100%
